The values below come from ChEMBL document CHEMBL5042516, “Heterobivalent Ligand for the Adenosine A2A-Dopamine D2 Receptor Heteromer” (J Med Chem, 2022).

The species entered for experiment [1] is Ovis aries. Briefly: Displacement of [3H]YM-09151-2 from dopamine D2 receptor from sheep brain striatum membrane assessed as first protomer region in unoccupied dimer incubated for 2 hrs by radioligand based competition binding assay. It is filed as cell membranes. For orientation: Displacement assays read how much labelled ligand stays bound in the presence of the test substance.

In a further experiment the test system is HEK293T. Briefly: Stabilization of A2A/D2 receptor heterodimerization in human HEK-293T cells cotransfected with A2AR-Rluc and D2R-YFP at 100 nM assessed as increase in heteromer stabilization by measuring yellow fluorescent protein level by BRET assay relative to control. The class given is cell-based. In general terms: In BRET a luciferase serves as donor, and the signal depends on an acceptor being close.

Experiment [2] relates to CHO. Briefly: Antagonist activity at chinese hamster D2 receptor expressed in CHO cells assessed as su-manirole induced response at 0.1 nM and measured for 30 mins by dynamic mass redistribution by DMR assay relative to control. The class given is cell-based. The note with it: Cricetulus griseus, filed as antagonist.
Experiment [3] deals with CHO. Briefly: Antagonist activity at chinese hamster A2A receptor expressed in CHO cells assessed as CGS 21 680 induced response at 10 nM and measured for 30 mins by dynamic mass redistribution by DMR assay. It is filed as cell-based. The conditions noted are these: Cricetulus griseus, filed as antagonist.
For experiment [4], the species on record is Ovis aries. Briefly: Displacement of [3H]- ZM 241 385 from A2A receptor from sheep brain striatum membrane assessed as first protomer region in the unoccupied dimer in presence of TM5-TAT peptide by radioligand based competition binding assay. The class given is cell membranes.
For experiment [5], the species on record is Ovis aries. Briefly: Displacement of [3H]- ZM 241 385 from A2A receptor from sheep brain striatum membrane assessed as first protomer region in the unoccupied dimer incubated for 2 hrs by radioligand based competition binding assay. The class given is cell membranes.
For experiment [6], the species on record is Ovis aries. Briefly: Displacement of [3H]- ZM 241 385 from A2A receptor from sheep brain striatum membrane assessed as first protomer region in the unoccupied dimer in presence of TM3-TAT peptide by radioligand based competition binding assay. The class given is cell membranes.

The source made the active and inactive calls. The rule behind the calls is not given here.

Turning to `COC(=O)CN(CC(=O)NCCOCCOCCOCCOCCOCCNC(C)=O)CC(=O)NCCOCCOCCOCCOCCOCCNC(=O)CCC(=O)Nc1ccc(CCN2CN(c3ccccc3)C3(CCN(CCCC(=O)c4ccc(F)cc4)CC3)C2=O)cc1`, the K in the experiment filed under Ovis aries [1] came to 0.5 nM.
As for `COC(=O)CN(CC(=O)NCCOCCOCCNC(=O)CCC(=O)Nc1ccc(CCN2CN(c3ccccc3)C3(CCN(CCCC(=O)c4ccc(F)cc4)CC3)C2=O)cc1)CC(=O)NCCOCCOCCNC(=O)COc1ccc(CCCn2ncc3c2nc(N)n2nc(-c4ccco4)nc32)cc1`, in the experiment on HEK293T, the outcome was Active.
On to `O=C(O)CCC(=O)Nc1ccc(CCN2CN(c3ccccc3)C3(CCN(CCCC(=O)c4ccc(F)cc4)CC3)C2=O)cc1`, for which, in the experiment on CHO [2], the outcome was Active.
Take `COC(=O)CN(CC(=O)NCCCOCCOCCOCCCNC(=O)CCC(=O)Nc1ccc(CCN2CN(c3ccccc3)C3(CCN(CCCC(=O)c4ccc(F)cc4)CC3)C2=O)cc1)CC(=O)NCCCOCCOCCOCCCNC(=O)COc1ccc(CCCn2ncc3c2nc(N)n2nc(-c4ccco4)nc32)cc1`: the Activity entry in the experiment on CHO [3] and with CHO [2] was “Antagonist” each time. The result in the experiment on HEK293T was Active.
Consider `COC(=O)CN(CC(=O)NCCOCCOCCOCCOCCOCCNC(=O)CCC(=O)Nc1ccc(CCN2CN(c3ccccc3)C3(CCN(CCCC(=O)c4ccc(F)cc4)CC3)C2=O)cc1)CC(=O)NCCOCCOCCOCCOCCOCCNC(=O)COc1ccc(CCCn2ncc3c2nc(N)n2nc(-c4ccco4)nc32)cc1`, for which the K in the experiment filed under Ovis aries [4] is 36 nM; in the experiment listed under Ovis aries [1], 0.13 nM; in the experiment filed under Ovis aries [5] it was 2.1 nM; in the experiment filed under Ovis aries [6] it was 1.7 nM. Also, the Activity result in the experiment with CHO [3] and in the experiment on CHO [2] was “Antagonist” throughout. The result in the experiment with HEK293T was Active.
As for `Nc1nc2c(cnn2CCCc2ccc(OCC(=O)O)cc2)c2nc(-c3ccco3)nn12`, in the experiment on CHO [3], the Activity result is “Antagonist”.
